46 sequences from the OligoGym collection can be followed below.

Several values for one entry are separate records, joined by “and”; a condition that tells them apart may be missing. Equal values may be shown once. After the bases stand the sugars from the 5' end (letter, count) and the backbone: PS all phosphorothioate, else s phosphorothioate and o phosphodiester by linkage. Methylation of C is not given here. e = 2'-O-(2-methoxyethyl) (MOE); k = constrained ethyl (cEt); d = 2'-deoxy (DNA)

The target in the data set is SOD1. The conditions noted are these: ASO.

The sequence “CTACAGCTAGCAGGATA (sugars e2 k2 d8 k2 e3, PS)” returned a target mRNA inhibition (HepG2, 0.1875 µM) of 40%; a target mRNA inhibition (HepG2, 0.75 µM) of 79%; a target mRNA inhibition (HepG2, 3 µM) of 89%; a target mRNA inhibition (HepG2, 4 µM) of 87%; a target mRNA inhibition (HepG2, 12 µM) of 94%.
In turn, “CTACATCCAAGGGAATG (sugars e3 k2 d7 k2 e3, PS)” had a target mRNA inhibition (HepG2, 3 µM) of 40%.
On to “CTCAGACTACATCCAAG (sugars e2 k2 d8 k2 e3, PS)”, for which the target mRNA inhibition is 38% (HepG2, 0.1875 µM); 65% (HepG2, 0.75 µM); 87% (HepG2, 3 µM); 85% and 83% (HepG2, 4 µM); 90% and 96% (HepG2, 12 µM).
On to “CTCCAACATGCCTCTCT (sugars e3 k2 d7 k2 e3, PS)”, for which, where the note is “HepG2, 3 µM”, the target mRNA inhibition was 5%.
On to “CTGACAAGTTTAATACC (sugars e2 k2 d8 k2 e3, PS)”, for which, where the note is “HepG2, 5 µM”, the target mRNA inhibition was found to be 30%.
Regarding “CTGACAAGTTTAATACC (sugars e3 k2 d7 k2 e3, PS)”, the target mRNA inhibition (HepG2, 3 µM) turned out to be 10%.
On to “CTGCAGGAGACTACGACGCA (sugars e5 d10 e5, PS)”, for which the target mRNA inhibition (HepG2, 4 µM) came to 36%.
In the case of “CTGGATAGAGGATTAAA (sugars e3 k2 d7 k2 e3, PS)”, the target mRNA inhibition (HepG2, 3 µM) turned out to be 26%.
Regarding “CTGGTCCATTACTTTCC (sugars e3 k2 d7 k2 e3, PS)”, the target mRNA inhibition (HepG2, 3 µM) came out at 11%.
The same measure, in the same setting: as for “CTGGTCCATTACTTTCCTTC (sugars e5 d10 e5, PS)”, the figure is 50%.
Turning to “CTGGTTCCGAGGACTGCAAC (sugars e5 d10 e5, PS)”, the target mRNA inhibition (HepG2, 4 µM) was determined as 51%.
In the case of “CTTCAATAGACACATCG (sugars e3 k2 d7 k2 e3, PS)”, under “HepG2, 3 µM”, the target mRNA inhibition is 9%.
As to “CTTCAGCACGCACACGGCCT (sugars e5 d10 e5, PS)”, the target mRNA inhibition reads like this: (HepG2, 0.1875 µM) 13%; (HepG2, 0.75 µM) 23%; (HepG2, 3 µM) 48%; (HepG2, 4 µM) 57%; (HepG2, 12 µM) 77%.
Regarding “CTTCCAAGTGATCATAA (sugars e2 k2 d8 k2 e3, PS)”, the target mRNA inhibition (HepG2, 5 µM) came out at 40%.
For the sequence “CTTCTGCTCGAAATTGA (sugars e3 k2 d7 k2 e3, PS)”, for the setting “HepG2, 3 µM”, the target mRNA inhibition turned out to be 13%.
In the case of “CTTCTGCTCGAAATTGATGA (sugars e5 d10 e5, PS)”, the target mRNA inhibition (HepG2, 4 µM) was 11%.
Take “CTTTCCTTCTGCTCGAA (sugars e3 k2 d7 k2 e3, PS)”: the target mRNA inhibition (HepG2, 3 µM) worked out at 0%.
“CTTTGCCCAAGTCATCTGCT (sugars e5 d10 e5, PS)” returned a target mRNA inhibition (HepG2, 4 µM) of 56% and a target mRNA inhibition (HepG2, 12 µM) of 86%.
For the sequence “CTTTTTCATGGACCACCAGT (sugars e5 d10 e5, PS)”, under “HepG2, 5 µM”, the target mRNA inhibition is 9%.
“GAATCCATGCAGGCCTT (sugars e3 k2 d7 k2 e3, PS)” returned a target mRNA inhibition (HepG2, 3 µM) of 9%.
The sequence “GACAAGTTTAATACCCA (sugars e3 k2 d7 k2 e3, PS)” returned a target mRNA inhibition (HepG2, 3 µM) of 24%.
Where the note is “HepG2, 4 µM”, “GACGCAAACCAGCACCCCGT (sugars e5 d10 e5, PS)” returned a target mRNA inhibition of 45%.
Same read-out and setting: with “GATAACAGATGAGTTAA (sugars e2 k2 d8 k2 e3, PS)” the figure was 41%.
Consider “GATACATTTCTACAGC (sugars ekddddddddekekee, linkages s1 o1 s8 o3 s2)”, for which the target mRNA inhibition runs as follows: (A431, 0.12 µM) 0%; (A431, 0.6 µM) 0%; (A431, 3 µM) 0%; (A431, 15 µM) 18%; (HepG2, 0.222 µM) 40%; (HepG2, 0.667 µM) 60%. Moreover, the target mRNA inhibition came out at 80% (HepG2, 2 µM) and 93% (HepG2, 6 µM).
Consider “GATACATTTCTACAGCT (sugars e2 k2 d9 k2 e2, PS)”, for which the target mRNA inhibition reads like this: (HepG2, 0.1875 µM) 0%; (HepG2, 0.75 µM) 45%; (HepG2, 3 µM) 75%; (HepG2, 4 µM) 77%; (HepG2, 12 µM) 97%.
In the case of “GATACATTTCTACAGCT (sugars e3 k2 d7 k2 e3, PS)”, the target mRNA inhibition (HepG2, 3 µM) was found to be 40%.
For the sequence “GATCCCAATTACACCAC (sugars e2 k2 d8 k2 e3, PS)”, the target mRNA inhibition (HepG2, 4 µM) stood at 41%.
“GATTTAAGTCTGGCAAA (sugars e2 k2 d8 k2 e3, PS)” returned a target mRNA inhibition (HepG2, 5 µM) of 19%.
On to “GCACTGGTACAGCCTGCTGT (sugars e5 d10 e5, PS)”, for which the target mRNA inhibition (HepG2, 5 µM) is 31% and 24%.
Where the note is “HepG2, 5 µM”, “GCCATACAGGGTTTTTA (sugars e2 k2 d8 k2 e3, PS)” showed a target mRNA inhibition of 13%.
Under “HepG2, 5 µM”, “GCCATACAGGGTTTTTA (sugars e2 k2 d9 k2 e2, PS)” yielded a target mRNA inhibition of 26%.
As for “GCCGTCGCCCTTCAGCA (sugars e3 k2 d7 k2 e3, PS)”, the target mRNA inhibition (HepG2, 3 µM) came out at 33%.
Under “HepG2, 5 µM”, “GCCTCATAATAAGTGCC (sugars e2 k2 d8 k2 e3, PS)” showed a target mRNA inhibition of 41%.
Take “GCGACTACTTTATAGGC (sugars e3 k2 d7 k2 e3, PS)”: for the setting “HepG2, 3 µM”, the target mRNA inhibition amounted to 12%.
In turn, “GCGGCCAATGATGCAATGGT (sugars e5 d10 e5, PS)” returned a target mRNA inhibition (HepG2, 5 µM) of 13%.
In the case of “GCTAGCAGGATAACAGA (sugars e2 k2 d8 k2 e3, PS)”, the target mRNA inhibition (HepG2, 4 µM) is 19%.
Regarding “GCTTCCCCACACCTTCACTG (sugars e5 d10 e5, PS)”, where the note is “HepG2, 3 µM”, the target mRNA inhibition came out at 50%.
As for “GCTTCCCCACACCTTCACTG (sugars e5 d10 e5, linkages s1 o3 s11 o3 s1)”, the target mRNA inhibition (A431, 0.12 µM) amounted to 0%; the target mRNA inhibition (A431, 0.6 µM) came to 0%; the target mRNA inhibition (A431, 3 µM) was found to be 11%; the target mRNA inhibition (A431, 15 µM) amounted to 0%; the target mRNA inhibition (HepG2, 0.222 µM) came out at 14%; the target mRNA inhibition (HepG2, 0.667 µM) was 32%. Moreover, the target mRNA inhibition is, setting by setting: (HepG2, 2 µM) 79%; (HepG2, 6 µM) 55%.
Consider “GCTTGAATGACAAAGAA (sugars e2 k2 d8 k2 e3, PS)”, for which the target mRNA inhibition (HepG2, 5 µM) turned out to be 24%.
Regarding “GCTTTTTCATGGACCAC (sugars e3 k2 d7 k2 e3, PS)”, under “HepG2, 3 µM”, the target mRNA inhibition is 71%.
Turning to “GGAATGTTTATTGGGCG (sugars e2 k2 d8 k2 e3, PS)”, the target mRNA inhibition (HepG2, 4 µM) is 37%.
Where the note is “HepG2, 4 µM”, “GGATAACAGATGAGTTA (sugars e2 k2 d9 k2 e2, PS)” yielded a target mRNA inhibition of 63%.
Sequence “GGATTAAAGTGAGGACC (sugars e3 k2 d7 k2 e3, PS)” returned a target mRNA inhibition (HepG2, 3 µM) of 30%.
As to “GGCCAGACCTCCGCGCCTCG (sugars e5 d10 e5, PS)”, the target mRNA inhibition (HepG2, 4 µM) was 49%.
For the sequence “GGCCTTCAGTCAGTCCTTTA (sugars e5 d10 e5, PS)”, for the setting “HepG2, 5 µM”, the target mRNA inhibition is 41% and 39%.
Consider “GGCGATCCCAATTACAC (sugars e2 k2 d8 k2 e3, PS)”, for which, for the setting “HepG2, 4 µM”, the target mRNA inhibition was found to be 33%.
